Laboratory results reported in ChEMBL document CHEMBL1201862, “PubChem BioAssay data set” (2004).
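Method: 48-hour compound exposure of cells in 96-well plates, five concentrations, linear interpolation of endpoints. GI50 = concentration required for 50% inhibition of growth.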 Calls of active or inactive are those of the source. Rule as the data show it: active = GI50 up to about 1.1 µM and inactive = higher.

Columns and labels:
Assay in all cases: NCI tumour cell line growth inhibition, 48 h
SF-539 = system: SF-539
HCT-15 = system: HCT-15
EKVX = system: EKVX
HL-60 = system: HL-60
SNB-75 = system: SNB-75
U-251 = system: U-251
SK-MEL-28 = system: SK-MEL-28
SF-295 = system: SF-295
UACC-257 = system: UACC-257
UACC-62 = system: UACC-62
OVCAR-8 = system: OVCAR-8
M14 = system: M14
RPMI-8226 = system: RPMI-8226
SK-OV-3 = system: SK-OV-3
OVCAR-4 = system: OVCAR-4
HOP-62 = system: HOP-62
ACHN = system: ACHN
NCI-H23 = system: NCI-H23
HT-29 = system: HT-29
MOLT-4 = system: MOLT-4
SF-268 = system: SF-268
786-0 = system: 786-0
NCI-H522 = system: NCI-H522
DMS-273 = system: DMS-273
IGROV-1 = system: IGROV-1
SN12C = system: SN12C
DMS-114 = system: DMS-114
OVCAR-5 = system: OVCAR-5
SW-620 = system: SW-620
HCT-116 = system: HCT-116
A498 = system: A498
KM12 = system: KM12
SNB-19 = system: SNB-19
HOP-18 = system: HOP-18
OVCAR-3 = system: OVCAR-3
LXFL 529 = system: LXFL 529
RXF 631 = system: RXF 631
SK-MEL-5 = system: SK-MEL-5
A549 = system: A549
SR = system: SR
K562 = system: K562
HCC 2998 = system: HCC 2998
CAKI-1 = system: CAKI-1
SNB-78 = system: SNB-78
DLD-1 = system: DLD-1
KM-20L2 = system: KM-20L2
CCRF-CEM = system: CCRF-CEM
NCI-H460 = system: NCI-H460
UO-31 = system: UO-31
HOP-92 = system: HOP-92
M19-MEL = system: M19-MEL
RXF 393 = system: RXF 393
TK-10 = system: TK-10
NCI-H226 = system: NCI-H226
LOX IMVI = system: LOX IMVI
SK-MEL-2 = system: SK-MEL-2
Malme-3M = system: Malme-3M
COLO 205 = system: COLO 205

In the case of C/C(=N\NS(=O)(=O)c1ccccc1)c1ccc[n+]([O-])n1, the GI50 (SF-539) is reported as > 100 µM (inactive), the GI50 (HCT-15) is reported as over 100 µM and the GI50 (EKVX) is reported as > 100 µM (inactive). The GI50 (HL-60) was 21.8 µM (inactive), the GI50 (SNB-75) was 47.6 µM (inactive) and the GI50 (U-251) was > 100 µM (inactive). For the same compound, the GI50 (SK-MEL-28) was 62.5 µM (inactive), the GI50 (SF-295) was > 100 µM (inactive) and the GI50 (UACC-257) was 58.7 µM (inactive). For the same compound, the GI50 (UACC-62) was > 100 µM (inactive), the GI50 (OVCAR-8) was 81.7 µM (inactive) and the GI50 (M14) was 30.1 µM (inactive). For the same compound, the GI50 (RPMI-8226) was 28.1 µM (inactive), the GI50 (SK-OV-3) was > 100 µM (inactive) and the GI50 (OVCAR-4) was 49.3 µM (inactive). The GI50 (HOP-62) was > 100 µM (inactive), the GI50 (ACHN) was > 100 µM (inactive) and the GI50 (NCI-H23) was > 100 µM (inactive). For the same compound, the GI50 (HT-29) was > 100 µM (inactive), the GI50 (MOLT-4) was 36.4 µM (inactive) and the GI50 (SF-268) was > 100 µM (inactive). The GI50 (786-0) was > 100 µM (inactive), the GI50 (NCI-H522) was 25.6 µM (inactive) and the GI50 (DMS-273) was > 100 µM (inactive). The GI50 (IGROV-1) was > 100 µM (inactive), the GI50 (SN12C) was > 100 µM (inactive) and the GI50 (DMS-114) was 97.3 µM (inactive). The GI50 (OVCAR-5) was > 100 µM (inactive), the GI50 (SW-620) was 34.8 µM (inactive) and the GI50 (HCT-116) was 88.1 µM (inactive). The GI50 (A498) was > 100 µM (inactive), the GI50 (KM12) was > 100 µM (inactive) and the GI50 (SNB-19) was > 100 µM (inactive). For the same compound, the GI50 (HOP-18) was > 100 µM (inactive), the GI50 (OVCAR-3) was 42.5 µM (inactive) and the GI50 (LXFL 529) was 37.8 µM (inactive). The GI50 (RXF 631) was > 100 µM (inactive), the GI50 (SK-MEL-5) was > 100 µM (inactive) and the GI50 (A549) was > 100 µM (inactive). For the same compound, the GI50 (SR) was 32.3 µM (inactive), the GI50 (K562) was 21 µM (inactive) and the GI50 (HCC 2998) was > 100 µM (inactive). For the same compound, the GI50 (CAKI-1) was 34.1 µM (inactive), the GI50 (SNB-78) was 63.7 µM (inactive) and the GI50 (DLD-1) was 44.9 µM (inactive). For the same compound, the GI50 (KM-20L2) was > 100 µM (inactive), the GI50 (CCRF-CEM) was 19.4 µM (inactive) and the GI50 (NCI-H460) was > 100 µM (inactive). For the same compound, the GI50 (UO-31) was > 100 µM (inactive), the GI50 (HOP-92) was 39 µM (inactive) and the GI50 (M19-MEL) was > 100 µM (inactive).

For Clc1c(Cl)c2c(Cl)c(Cl)c1C[PH](c1ccccc1)(c1ccccc1)CC[PH](c1ccccc1)(c1ccccc1)Cc1c(Cl)c(Cl)c(c(Cl)c1Cl)C[PH](c1ccccc1)(c1ccccc1)CC[PH](c1ccccc1)(c1ccccc1)C2, the GI50 (SF-539) was 3.68 µM (inactive), the GI50 (HCT-15) was 8.39 µM and the GI50 (EKVX) was 9.08 µM (inactive). The GI50 (RXF 393) was 2.49 µM (inactive), the GI50 (HL-60) was 1.36 µM (inactive) and the GI50 (SNB-75) was 3.46 µM (inactive). The GI50 (U-251) was 3.22 µM (inactive), the GI50 (SK-MEL-28) was 2.02 µM (inactive) and the GI50 (SF-295) was 3.35 µM (inactive). For the same compound, the GI50 (UACC-257) was 2.38 µM (inactive), the GI50 (UACC-62) was 1.85 µM (inactive) and the GI50 (OVCAR-8) was 3.29 µM (inactive). For the same compound, the GI50 (M14) was 4.51 µM (inactive), the GI50 (RPMI-8226) was 1.28 µM (inactive) and the GI50 (SK-OV-3) was 6.84 µM (inactive). For the same compound, the GI50 (OVCAR-4) was 1.11 µM (active), the GI50 (HOP-62) was 4.95 µM (inactive) and the GI50 (ACHN) was 4.69 µM (inactive). For the same compound, the GI50 (NCI-H23) was 2.01 µM (inactive), the GI50 (TK-10) was 3.18 µM (inactive) and the GI50 (HT-29) was 2.21 µM (inactive). The GI50 (MOLT-4) was 3.27 µM (inactive), the GI50 (SF-268) was 3.39 µM (inactive) and the GI50 (786-0) was 4.67 µM (inactive). For the same compound, the GI50 (NCI-H522) was 2.56 µM (inactive), the GI50 (DMS-273) was 2.42 µM (inactive) and the GI50 (IGROV-1) was 2.86 µM (inactive). For the same compound, the GI50 (SN12C) was 3.28 µM (inactive), the GI50 (DMS-114) was 1.68 µM (inactive) and the GI50 (OVCAR-5) was 3.15 µM (inactive). For the same compound, the GI50 (SW-620) was 3.31 µM (inactive), the GI50 (HCT-116) was 1.79 µM (inactive) and the GI50 (A498) was 11.4 µM (inactive). For the same compound, the GI50 (NCI-H226) was 5.07 µM (inactive), the GI50 (LOX IMVI) was 2.52 µM (inactive) and the GI50 (KM12) was 2.34 µM (inactive). For the same compound, the GI50 (SK-MEL-2) was 2.16 µM (inactive), the GI50 (SNB-19) was 2.67 µM (inactive) and the GI50 (Malme-3M) was 2.38 µM (inactive). For the same compound, the GI50 (HOP-18) was 8.17 µM (inactive), the GI50 (OVCAR-3) was 2.66 µM (inactive) and the GI50 (LXFL 529) was 2.15 µM (inactive). The GI50 (RXF 631) was 6.68 µM (inactive), the GI50 (SK-MEL-5) was 1.67 µM (inactive) and the GI50 (A549) was 3.72 µM (inactive). For the same compound, the GI50 (K562) was 2.09 µM (inactive), the GI50 (HCC 2998) was 3.63 µM (inactive) and the GI50 (CAKI-1) was 7.06 µM (inactive). The GI50 (SNB-78) was 3.82 µM (inactive), the GI50 (DLD-1) was 2.37 µM (inactive) and the GI50 (KM-20L2) was 2.65 µM (inactive). The GI50 (COLO 205) was 1.53 µM (inactive), the GI50 (CCRF-CEM) was 2.46 µM (inactive) and the GI50 (NCI-H460) was 2.77 µM (inactive). The GI50 (UO-31) was 6.49 µM (inactive), the GI50 (HOP-92) was 2.26 µM (inactive) and the GI50 (M19-MEL) was 2.81 µM (inactive).
